Measured values reported in patent US12257050B2, “Calibration free in-vivo measurement of analytes using electrochemical sensors” (THE REGENTS OF THE UNIVERSITY OF CALIFORNIA, priority 2017, dated 2025).

Settings: rat, in vivo, iv, 30 mg/kg
Source text: The drift-resistance of chronoamperometrically-interrogated E-AB sensors is sufficient to support continuous, real-time measurements directly in situ in the blood of live animals. Aminoglycoside-binding E-AB were fabricated sensors on 75 μm-diameter gold micro-wires, encased in 22-gauge catheters for structural support, and deployed directly in the jugular veins of live rats (FIG. 6A). The plasma pharmacokinetics of the antibiotic tobramycin were monitored following an intravenous administration of 30 mg/kg by performing continuous chronoamperometric measurements for a total of two hours (FIG. 6B). Continuous measurements were achieved by pulsing the potential of the E-AB sensors serially between −0.1 V and −0.3 V, holding each pulse with a duration of only 100 ms. Then, non-linear regression analysis was performed of the current transients generated at −0.3 V to extract current decay lifetimes in real time, and these lifetimes were converted to concentration using the previously determined Langmuir isotherm (FIG. 6C). […]
The sub-second time resolution of chronoamperometrically interrogated E-AB sensors measurement of drug pharmacokinetics with unprecedented precision. The distribution, α, and elimination, β, lifetimes of tobramycin were determined by fitting the in vivo data to a two-compartment pharmacokinetic model. […]

distribution lifetime α (first-order time constant of drug distribution): 3.74 ± 0.04 min | elimination lifetime β (elimination time constant): 69 ± 2 min
SMILES: NC[C@H]1O[C@H](O[C@H]2[C@H](O)[C@@H](O[C@H]3O[C@H](CO)[C@@H](O)[C@H](N)[C@H]3O)[C@H](N)C[C@@H]2N)[C@H](N)C[C@@H]1O [tobramycin]
